From US6861044B2, “Radioiodinated sulfonated phenols and process therefore” (The Dow Chemical Company, priority 1998, dated 2005)
Values joined by “and” are separate entries in the source; they are usually repeats but may differ in a detail not shown here. Equal entries are not always repeated.

Experiments:
[1] = Two hour rat biodistribution after intrathecal administration; type: in vivo, Sprague-Dawley rats
Procedure: (§1) The radioiodinated HBS (^131I-HBS) solution (100 μL), prepared in Example 3, was injected […] into a tail vein of three Sprague-Dawley rats (180-220 g). After one hour, the animals were sacrificed and the tissues and organs of interest were removed and weighed. The amount of radioactivity in each organ was determined by counting the tissue sample with a sodium iodide detector coupled to a multi-channel analyzer. The counts in the tissues were compared to the average counts of three 100 μL aliquots of ^131I-HBS counted in the same manner. The percentage of dose in the bone was calculated by assuming the femur to represent 1/25 the weight of the total skeletal system. The blood dose was calculated by assuming that blood comprises 6.5% of the total body weight. Muscle dose was calculated by assuming that muscle comprises 43% of the total body weight.
An I-HBS solution was prepared as in Example 3. Twenty μL of this solution was injected intrathecally in two Sprague-Dawley rats (100-150 g). After two hours the rats were sacrificed and dissected. The amount of radio activity in various organs and tissues was determined as in Example 4.

[2] = Rat biodistribution 1 hour after tail vein injection; type: in vivo, Sprague-Dawley rats; conditions: for Activity in the thyroid / Radioactivity in / cleared from the body: rats
Procedure: as §1
The biodistribution of the radioiodinated tyramine prepared in Example 6 was determined as in Example 4 (using 2 rats).

prealbumin = prealbumin (Homo sapiens, UniProt P02766); conditions: concentrations up to 0.2 mM; cited from earlier work
[3] = biological target: T1, thyroxine-binding globulin (Homo sapiens, UniProt P05543); conditions: concentrations up to 0.2 mM; cited from earlier work
T1 sequence (P05543 21-415): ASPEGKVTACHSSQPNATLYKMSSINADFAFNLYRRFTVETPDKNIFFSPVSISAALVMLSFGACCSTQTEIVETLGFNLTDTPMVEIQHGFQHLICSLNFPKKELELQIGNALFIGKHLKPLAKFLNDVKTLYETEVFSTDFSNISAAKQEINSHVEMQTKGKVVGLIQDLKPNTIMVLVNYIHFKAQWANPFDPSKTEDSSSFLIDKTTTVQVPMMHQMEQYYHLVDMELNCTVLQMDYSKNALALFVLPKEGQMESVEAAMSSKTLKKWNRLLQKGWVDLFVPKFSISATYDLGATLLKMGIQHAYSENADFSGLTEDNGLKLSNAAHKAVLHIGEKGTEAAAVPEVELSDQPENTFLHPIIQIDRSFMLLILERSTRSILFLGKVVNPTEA

albumin = albumin (Homo sapiens, UniProt P02768); conditions: concentrations up to 0.2 mM; cited from earlier work
Sequence of albumin (P02768 25-609, species assumed): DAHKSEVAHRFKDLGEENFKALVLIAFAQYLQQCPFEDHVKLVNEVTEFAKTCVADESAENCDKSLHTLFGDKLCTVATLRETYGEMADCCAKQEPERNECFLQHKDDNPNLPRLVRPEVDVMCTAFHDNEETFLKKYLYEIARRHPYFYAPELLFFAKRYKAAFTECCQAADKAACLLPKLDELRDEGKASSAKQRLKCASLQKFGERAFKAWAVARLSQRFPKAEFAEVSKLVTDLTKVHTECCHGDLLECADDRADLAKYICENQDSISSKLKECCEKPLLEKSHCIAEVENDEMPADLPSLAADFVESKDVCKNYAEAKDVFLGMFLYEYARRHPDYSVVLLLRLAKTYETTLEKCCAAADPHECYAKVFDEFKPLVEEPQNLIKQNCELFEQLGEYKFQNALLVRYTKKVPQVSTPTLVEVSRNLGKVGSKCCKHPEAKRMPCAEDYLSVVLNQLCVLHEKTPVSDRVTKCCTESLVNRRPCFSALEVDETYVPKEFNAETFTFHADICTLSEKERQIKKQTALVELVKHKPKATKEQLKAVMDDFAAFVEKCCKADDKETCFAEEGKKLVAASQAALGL

[4] = average of two rats, two hours after intrathecal administration of 20 μL
[5] = two hours after intrathecal administration, rats
[6] = 1 hour post injection, tail vein
[7] = average of three rats, 1 Hour After Injection, tail vein
[8] = individual rat, 1 Hour After Injection, tail vein
[9] = average of 2 rats, determined as in Example 4 (percent of dose, 1 hour post injection, tail vein)
[10] = individual rat, determined as in Example 4 (percent of dose, 1 hour post injection, tail vein)

## O=S(=O)([O-])c1ccc(O)c([131I])c1.[Na+] [^131I-HBS]
[1]; [4]
  % Injected Dose, Bladder: 0.3 % Injected Dose
  % Injected Dose, Blood: 0.7 % Injected Dose
  % Injected Dose, Bone: 1.3 % Injected Dose
  % Injected Dose, Brain: 1.6 % Injected Dose
  % Injected Dose, Caecum: 0.0 % Injected Dose
  % Injected Dose, Colon: 0.9 % Injected Dose
  % Injected Dose, Heart: 0.0 % Injected Dose
  % Injected Dose, Kidney: 0.3 % Injected Dose
  % Injected Dose, Liver: 0.2 % Injected Dose
  % Injected Dose, Lung: 0.0 % Injected Dose
  % Injected Dose, Muscle: 0.5 % Injected Dose
  % Injected Dose, Sm. Intestine: 0.5 % Injected Dose
  % Injected Dose, Spleen: 0.0 % Injected Dose
  % Injected Dose, Stomach: 0.3 % Injected Dose
  % Injected Dose, Thyroid: 0.0 % Injected Dose
[1]; average of two rats, two hours after intrathecal administration of 20 μL, recovery of urine may have been less than quantitative
  % Injected Dose, Urine: 88 % Injected Dose
[1]; [5]
  Clearance of radioactivity through the kidney: had cleared the kidney
  Radioactivity present in the thyroid: little or no radioactivity
[2]; 1 hour post injection, all animals
  Activity in the urine: Almost all the activity
[2]; [6]
  Activity in the thyroid: lack of activity
  Radioactivity in / cleared from the body: very little activity
[2]; [7]
  Percent Injected Dose, Heart, Average: 0.01 Percent Injected Dose
  Percent Injected Dose, Kidney, Average: 0.12 Percent Injected Dose
  Percent Injected Dose, Lg. Int., Average: 0.08 Percent Injected Dose
  Percent Injected Dose, Liver, Average: 0.06 Percent Injected Dose
  Percent Injected Dose, Lung, Average: 0.02 Percent Injected Dose
  Percent Injected Dose, Sm Int., Average: 1.10 Percent Injected Dose
  Percent Injected Dose, Spleen, Average: 0.00 Percent Injected Dose
  Percent Injected Dose, Stomach, Average: 0.29 Percent Injected Dose
  Percent Injected Dose, Tail, Average: 0.08 Percent Injected Dose
  Percent Injected Dose, Thyroid, Average: 0.00 Percent Injected Dose
[2]; average of three rats, 1 Hour After Injection, tail vein, blood taken as 6.5% of body weight
  Percent Injected Dose, Blood, Average: 0.16 Percent Injected Dose
[2]; average of three rats, 1 Hour After Injection, tail vein, femur taken as 1/25 of skeleton
  Percent Injected Dose, Bone, Average: 1.00 Percent Injected Dose
[2]; average of three rats, 1 Hour After Injection, tail vein, muscle taken as 43% of body weight
  Percent Injected Dose, Muscle, Average: 0.40 Percent Injected Dose
[2]; [8]
  Percent Injected Dose, Heart: 0.01 Percent Injected Dose (2×) and 0.02 Percent Injected Dose
  Percent Injected Dose, Kidney: 0.19 Percent Injected Dose and 0.10 Percent Injected Dose and 0.08 Percent Injected Dose
  Percent Injected Dose, Lg. Int.: 0.08 Percent Injected Dose and 0.12 Percent Injected Dose and 0.05 Percent Injected Dose
  Percent Injected Dose, Liver: 0.05 Percent Injected Dose and 0.08 Percent Injected Dose and 0.06 Percent Injected Dose
  Percent Injected Dose, Lung: 0.01 Percent Injected Dose and 0.03 Percent Injected Dose and 0.02 Percent Injected Dose
  Percent Injected Dose, Sm Int.: 1.51 Percent Injected Dose and 0.67 Percent Injected Dose and 1.24 Percent Injected Dose
  Percent Injected Dose, Spleen: 0.01 Percent Injected Dose (2×) and 0.00 Percent Injected Dose
  Percent Injected Dose, Stomach: 0.33 Percent Injected Dose and 0.31 Percent Injected Dose and 0.24 Percent Injected Dose
  Percent Injected Dose, Tail: 0.01 Percent Injected Dose and 0.16 Percent Injected Dose and 0.09 Percent Injected Dose
  Percent Injected Dose, Thyroid: 0.00 Percent Injected Dose
[2]; individual rat, 1 Hour After Injection, tail vein, blood taken as 6.5% of body weight
  Percent Injected Dose, Blood: 0.14 Percent Injected Dose and 0.18 Percent Injected Dose and 0.15 Percent Injected Dose
[2]; individual rat, 1 Hour After Injection, tail vein, femur taken as 1/25 of skeleton
  Percent Injected Dose, Bone: 0.37 Percent Injected Dose and 0.16 Percent Injected Dose
[2]; individual rat, 1 Hour After Injection, tail vein, muscle taken as 43% of body weight
  Percent Injected Dose, Muscle: 0.88 Percent Injected Dose and 0.38 Percent Injected Dose and 0.05 Percent Injected Dose

## O=S(=O)(O)c1cc(I)c(O)c(I)c1 [diiodophenolsulphonic acid, 3,5-diiodo-4-hydroxybenzenesulphonic acid]
prealbumin
  Displacement of thyroxine from prealbumin-binding sites: did selectively display thyroxine
[3]
  Displacement of triiodothyronine from thyroxine-binding globulin: did not displace
albumin
  Displacement of triiodothyronine from albumin: did not displace

## NCCc1ccc(O)c([131I])c1 [radioiodinated tyramine]
[2]; [6]
  Activity in the thyroid: very little
  Radioactivity in / cleared from the body: most radioactivity had cleared the body
[2]; [9]
  Biodistribution, Blood, Average: 1.13
  Biodistribution, Bone, Average: 0.25
  Biodistribution, Heart, Average: 0.03
  Biodistribution, Kidney, Average: 0.26
  Biodistribution, Lg. Int., Average: 1.24
  Biodistribution, Liver, Average: 0.52
  Biodistribution, Lung, Average: 0.15
  Biodistribution, Muscle, Average: 1.09
  Biodistribution, Sm. Int., Average: 4.07
  Biodistribution, Spleen, Average: 0.01
  Biodistribution, Stomach, Average: 0.43
  Biodistribution, Tail, Average: 0.49
  Biodistribution, Thyroid, Average: 0.09
[2]; [10]
  Biodistribution, Blood: 1.19 and 1.06
  Biodistribution, Bone: 0.30 and 0.20
  Biodistribution, Heart: 0.03 and 0.02
  Biodistribution, Kidney: 0.26 and 0.25
  Biodistribution, Lg. Int.: 0.46 and 2.02
  Biodistribution, Liver: 0.46 and 0.57
  Biodistribution, Lung: 0.03 and 0.26
  Biodistribution, Muscle: 1.31 and 0.87
  Biodistribution, Sm. Int.: 3.47 and 4.67
  Biodistribution, Spleen: 0.01
  Biodistribution, Stomach: 0.37 and 0.48
  Biodistribution, Tail: 0.77 and 0.20
  Biodistribution, Thyroid: 0.12 and 0.07
